Reference: patent publication US9855243B2, “Topical anti-inflammatory pharmaceutical composition with zileuton cream formulation” (Qurient Co., Ltd., priority 2013, dated 2018)
“And” between values parts separate entries of the source, which are not always exact repeats. Identical values can stand only once.

Tests used:
[1] = tested on: inflammation reaction of asthma; details: clinical trials; oral drug; cited from earlier work
[2] = tested on: liver functions of the patient; details: oral administration; cited from earlier work
[3] = Screening of excipient suitability: zileuton with excipient, stability at 50° C.; format: physicochemical
Method: Suitability of components generally used in cream formulation with respect to zieluton was screened, prior to preparing a zieluton cream formulation. […] That is, the stability of excipient at 50° C. was tested.

[4] = tested on: atopic dermatitis symptoms; details: clinical trials; oral administration; cited from earlier work
[5] = Solubility of zileuton in solvents at 25° C.(RT); format: physicochemical
Source text: Furthermore, the suitability of other various solvents for solubilizing zileuton was screened. […] Especially, hydrophilics solvents such as alcohols may be preferably used.

[6] = Solution stability test of zileuton in solvents (TRS %); format: physicochemical; details: for TRS increase rate %: Day 0 to Day 8
Method: In the solution stability test, suitability with solvents for solubilizing zileuton (ethanol, PEG400, propylene glycol, hexylene glycol, capryol 90, benzyl alcohol, water) was screened.
As a result, as illustrated in Tables 2 and 3 below, most of the solvents were suitable to zileuton under the 25° C. condition, but were unstable under the condition of 40° C. or 70° C.

[7] = Zileuton API alone, 2 weeks, 50° C.
[8] = Zileuton API alone, 4 weeks, 50° C.
[9] = with Carbomer 1:1, 2 weeks, 50° C.
[10] = with Carbomer 1:1, 4 weeks, 50° C.
[11] = with Ceteareth-20 1:1, 2 weeks, 50° C.
[12] = with Ceteareth-20 1:1, 4 weeks, 50° C.
[13] = with Hypromellose (HPMC) 1:1, 2 weeks, 50° C.
[14] = with Hypromellose (HPMC) 1:1, 4 weeks, 50° C.
[15] = with Hypromellose (HPMC) 1:1, Day 0
[16] = with Phospholipon 90H 1:1, 2 weeks, 50° C.
[17] = with Phospholipon 90H 1:1, 4 weeks, 50° C.
[18] = with Phospholipon 90H 1:1, Day 0
[19] = with Stearyl alcohol 1:1, 2 weeks, 50° C.
[20] = with Stearyl alcohol 1:1, 4 weeks, 50° C.
[21] = with Stearyl alcohol 1:1, Day 0
[22] = with Titanium dioxide 1:1, 2 weeks, 50° C.
[23] = with Titanium dioxide 1:1, 4 weeks, 50° C.
[24] = with Titanium dioxide 1:1, Day 0
[25] = with White wax 1:1, 2 weeks, 50° C.
[26] = with White wax 1:1, 4 weeks, 50° C.

CC(c1cc2ccccc2s1)N(O)C(N)=O (racemic) [Zileuton, (±)-1-(1-(benzo [b]thiophen-2-yl)ethyl)-1-hydroxyurea]
Anti-inflammatory effect in asthma [1]: effective anti-inflammatory pharmaceutical effect
Hepatotoxicity [2]: significant hepatotoxicity
Appearance [3, 7]: White
TRS. % [3, 7]: 3.311% and 3.006%
Appearance [3, 8]: White
TRS. % [3, 8]: 2.711% and 2.493%
TRS. % ([3]; Zileuton API alone, Day 0): 2.378%
Appearance [3, 9]: White
TRS. % [3, 9]: 2.385% and 3.067%
Appearance [3, 10]: White
TRS. % [3, 10]: 2.330% and 2.403%
Appearance ([3]; with Carbomer 1:1, Day 0): White
TRS. % ([3]; with Carbomer 1:1, Day 0): 3.326%
Appearance [3, 11]: White
TRS. % [3, 11]: 3.445% and 3.365%
Appearance [3, 12]: White
TRS. % [3, 12]: 3.632% and 3.549%
Appearance ([3]; with Ceteareth-20 1:1, Day 0): White
TRS. % ([3]; with Ceteareth-20 1:1, Day 0): 2.394%
Appearance [3, 13]: White
TRS. % [3, 13]: 2.864% and 2.949%
Appearance [3, 14]: White
TRS. % [3, 14]: 2.555% and 2.580%
Appearance [3, 15]: White
TRS. % [3, 15]: 2.610%
Appearance [3, 16]: White
TRS. % [3, 16]: 2.820% and 2.846%
Appearance [3, 17]: White
TRS. % [3, 17]: 2.557% and 2.429%
Appearance [3, 18]: White
TRS. % [3, 18]: 2.400%
Appearance [3, 19]: White
TRS. % [3, 19]: 2.935% and 2.796%
Appearance [3, 20]: White
TRS. % [3, 20]: 2.512% and 2.567%
Appearance [3, 21]: White
TRS. % [3, 21]: 3.311%
Appearance [3, 22]: White
TRS. % [3, 22]: 2.803% and 2.839%
Appearance [3, 23]: White
TRS. % [3, 23]: 2.507% and 2.504%
Appearance [3, 24]: White
TRS. % [3, 24]: 2.344%
Appearance [3, 25]: White
TRS. % [3, 25]: 2.863% and 2.843%
Appearance [3, 26]: White
TRS. % [3, 26]: 2.459% and 2.381%
Appearance ([3]; with White wax 1:1, Day 0): White
TRS. % ([3]; with White wax 1:1, Day 0): 2.372%
Effect on atopic dermatitis symptoms [4]: alleviates atopic dermatitis symptoms
Zileuton Solubility at RT (% w/w) ([5]; in Caprylocaproyl Polyoxyl-8 Glycerides/Labrasol): 10.81-11.42 % w/w
Zileuton Solubility at RT (% w/w) ([5]; in Castor Oil): <0.16 % w/w
Zileuton Solubility at RT (% w/w) ([5]; in Cyclomethicone): <0.06 % w/w
Zileuton Solubility at RT (% w/w) ([5]; in Diethylene Glycol Monoethyl Ether/Transcutol P): 17.11-17.62 % w/w
Zileuton Solubility at RT (% w/w) ([5]; in Dimethicone): <0.06 % w/w
Zileuton Solubility at RT (% w/w) ([5]; in Isopropyl Myristate): <0.20 % w/w
Zileuton Solubility at RT (% w/w) ([5]; in Light Mineral Oil): <0.04 % w/w
Zileuton Solubility at RT (% w/w) ([5]; in Medium Chain Triglycerides): <0.21 % w/w
Zileuton Solubility at RT (% w/w) ([5]; in Olive Oil): <0.07 % w/w
Zileuton Solubility at RT (% w/w) ([5]; in Polyglyceryl-6 Dioleate): <0.06 % w/w
Zileuton Solubility at RT (% w/w) ([5]; in Polyglyceryl-10 Mono/Dioleate/Caprol PGE-860): <0.16 % w/w
Zileuton Solubility at RT (% w/w) ([5]; in Polyoxyethylene (20) Sorbitan Monolaurate/Tween 20): 8.42-9.24 % w/w
Zileuton Solubility at RT (% w/w) ([5]; in Polyoxyl 40 Hydrogenated Castor Oil/Kolliphor RH40): <0.37 % w/w
Zileuton Solubility at RT (% w/w) ([5]; in Propylene Glycol Dicaprylocaprate): <0.20 % w/w
Zileuton Solubility at RT (% w/w) ([5]; in Safflower Oil): <0.07 % w/w
Zileuton Solubility at RT (% w/w) ([5]; in Squalane): <0.04 % w/w
Zileuton Solubility at RT (% w/w) ([5]; in Triacetin): 0.50-0.72 % w/w
TRS (%) ([6]; in Benzyl alcohol, 25° C., Day 0): 1.642%
TRS increase rate % ([6]; in Benzyl alcohol, 25° C.): 0.381%
TRS (%) ([6]; in Benzyl alcohol, 25° C., Day 1): 0.869%
TRS (%) ([6]; in Benzyl alcohol, 25° C., Day 3): 1.806%
TRS (%) ([6]; in Benzyl alcohol, 25° C., Day 8): 2.023%
TRS (%) ([6]; in Benzyl alcohol, 70° C., Day 0): 1.642%
TRS increase rate % ([6]; in Benzyl alcohol, 70° C.): 22.608%
TRS (%) ([6]; in Benzyl alcohol, 70° C., Day 1): 11.350%
TRS (%) ([6]; in Benzyl alcohol, 70° C., Day 3): 20.397%
TRS (%) ([6]; in Benzyl alcohol, 70° C., Day 8): 24.250%
TRS (%) ([6]; in Capryol 90, 25° C., Day 0): 1.623%
TRS increase rate % ([6]; in Capryol 90, 25° C.): 0.578%
TRS (%) ([6]; in Capryol 90, 25° C., Day 1): 1.444%
TRS (%) ([6]; in Capryol 90, 25° C., Day 3): 1.478%
TRS (%) ([6]; in Capryol 90, 25° C., Day 8): 2.201%
TRS (%) ([6]; in Capryol 90, 70° C., Day 0): 1.623%
TRS increase rate % ([6]; in Capryol 90, 70° C.): 74.822%
TRS (%) ([6]; in Capryol 90, 70° C., Day 1): 10.312%
TRS (%) ([6]; in Capryol 90, 70° C., Day 3): 39.603%
TRS (%) ([6]; in Capryol 90, 70° C., Day 8): 76.445%
TRS (%) ([6]; in Ethanol, 25° C., Day 0): 1.255%
TRS increase rate % ([6]; in Ethanol, 25° C.): 0.882%
TRS (%) ([6]; in Ethanol, 25° C., Day 1): 1.014%
TRS (%) ([6]; in Ethanol, 25° C., Day 3): 1.951%
TRS (%) ([6]; in Ethanol, 25° C., Day 8): 2.137%
TRS (%) ([6]; in Ethanol, 40° C., Day 0): 1.255%
TRS increase rate % ([6]; in Ethanol, 40° C.): 3.449%
TRS (%) ([6]; in Ethanol, 40° C., Day 1): 1.778%
TRS (%) ([6]; in Ethanol, 40° C., Day 3): 2.375%
TRS (%) ([6]; in Ethanol, 40° C., Day 8): 4.704%
TRS (%) ([6]; in Hexylene glycol, 25° C., Day 0): 1.505%
TRS increase rate % ([6]; in Hexylene glycol, 25° C.): 0.475%
TRS (%) ([6]; in Hexylene glycol, 25° C., Day 1): 1.448%
TRS (%) ([6]; in Hexylene glycol, 25° C., Day 3): 1.583%
TRS (%) ([6]; in Hexylene glycol, 25° C., Day 8): 1.980%
TRS (%) ([6]; in Hexylene glycol, 70° C., Day 0): 1.505%
TRS increase rate % ([6]; in Hexylene glycol, 70° C.): 58.847%
TRS (%) ([6]; in Hexylene glycol, 70° C., Day 1): 8.061%
TRS (%) ([6]; in Hexylene glycol, 70° C., Day 3): 29.999%
TRS (%) ([6]; in Hexylene glycol, 70° C., Day 8): 60.352%
TRS (%) ([6]; in Polyethylene glycol (PEG-400), 25° C., Day 0): 1.427%
TRS increase rate % ([6]; in Polyethylene glycol (PEG-400), 25° C.): 2.638%
TRS (%) ([6]; in Polyethylene glycol (PEG-400), 25° C., Day 1): 1.491%
TRS (%) ([6]; in Polyethylene glycol (PEG-400), 25° C., Day 3): 2.897%
TRS (%) ([6]; in Polyethylene glycol (PEG-400), 25° C., Day 8): 4.065%
TRS (%) ([6]; in Polyethylene glycol (PEG-400), 70° C., Day 0): 1.427%
TRS increase rate % ([6]; in Polyethylene glycol (PEG-400), 70° C.): 95.715%
TRS (%) ([6]; in Polyethylene glycol (PEG-400), 70° C., Day 1): 43.725%
TRS (%) ([6]; in Polyethylene glycol (PEG-400), 70° C., Day 3): 94.366%
TRS (%) ([6]; in Polyethylene glycol (PEG-400), 70° C., Day 8): 97.142%
TRS (%) ([6]; in Propylene glycol, 25° C., Day 0): 1.457%
TRS increase rate % ([6]; in Propylene glycol, 25° C.): 0.675%
TRS (%) ([6]; in Propylene glycol, 25° C., Day 1): 1.624%
TRS (%) ([6]; in Propylene glycol, 25° C., Day 3): 1.478%
TRS (%) ([6]; in Propylene glycol, 25° C., Day 8): 2.132%
TRS (%) ([6]; in Propylene glycol, 70° C., Day 0): 1.457%
TRS increase rate % ([6]; in Propylene glycol, 70° C.): 94.868%
TRS (%) ([6]; in Propylene glycol, 70° C., Day 1): 26.382%
TRS (%) ([6]; in Propylene glycol, 70° C., Day 3): 82.228%
TRS (%) ([6]; in Propylene glycol, 70° C., Day 8): 96.325%
TRS (%) ([6]; in Water, 25° C., Day 0): 1.424%
TRS increase rate % ([6]; in Water, 25° C.): 0.541%
TRS (%) ([6]; in Water, 25° C., Day 1): 1.879%
TRS (%) ([6]; in Water, 25° C., Day 3): 1.816%
TRS (%) ([6]; in Water, 25° C., Day 8): 1.965%
TRS (%) ([6]; in Water, 70° C., Day 0): 1.424%
TRS increase rate % ([6]; in Water, 70° C.): 90.570%
TRS (%) ([6]; in Water, 70° C., Day 1): 35.171%
TRS (%) ([6]; in Water, 70° C., Day 3): 80.268%
TRS (%) ([6]; in Water, 70° C., Day 8): 91.994%
